Like-named read-outs stand apart in the source and are kept apart here. Where only a bound is given, the exact number is not on record here.

The source of these data is patent US6822100B2 (Bristol-Myers Squibb Company, priority 2001, dated 2004).

The target in data set [1] is T1, recombinant human dopamine D2L receptors (Homo sapiens, UniProt P14416).
T1 construct: expressed in transfected cells; host or cells: HEK-293 (HEK-D2L), membrane homogenates
Nature of the data set: Dopamine Binding Assay. Particulars: HEK-D2L cell membranes, 150 pM [3H]-spiperone, Cheng and Prusoff. Summed up:
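Competition binding on HEK-293 membranes stably expressing human D2L (~5 μg protein) with 150 pM [3H]-spiperone, 1.5 h at 22 °C in 50 mM Tris pH 7.4, 1 mM EDTA, 6 mM MgCl2. Filtration read-out; non-specific binding defined with 2 μM (+)butaclamol, Ki by Cheng-Prusoff.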

The target in data set [2] is T2, human serotonin transporters (Homo sapiens, UniProt P31645).
T2 construct: expressed in transfected cells; host or cells: HEK-293 (HEK-hSERT), membrane homogenates
T2 sequence (P31645 whole entry): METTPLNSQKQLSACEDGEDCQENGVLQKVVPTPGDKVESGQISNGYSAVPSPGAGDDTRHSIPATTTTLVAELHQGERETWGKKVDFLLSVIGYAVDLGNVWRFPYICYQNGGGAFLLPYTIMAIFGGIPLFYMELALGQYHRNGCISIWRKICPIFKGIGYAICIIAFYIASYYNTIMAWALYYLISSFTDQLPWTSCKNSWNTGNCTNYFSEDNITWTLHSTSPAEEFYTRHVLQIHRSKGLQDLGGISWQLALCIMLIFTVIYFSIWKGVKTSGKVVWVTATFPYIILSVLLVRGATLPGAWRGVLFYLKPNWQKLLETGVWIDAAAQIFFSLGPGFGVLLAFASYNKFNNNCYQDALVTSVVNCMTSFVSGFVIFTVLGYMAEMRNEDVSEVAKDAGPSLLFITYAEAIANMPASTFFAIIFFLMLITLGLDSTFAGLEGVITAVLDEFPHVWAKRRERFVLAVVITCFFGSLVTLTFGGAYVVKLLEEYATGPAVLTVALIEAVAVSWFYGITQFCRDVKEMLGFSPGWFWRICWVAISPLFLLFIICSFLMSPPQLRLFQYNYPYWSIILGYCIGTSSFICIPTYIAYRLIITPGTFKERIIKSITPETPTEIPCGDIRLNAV
Nature of the data set: Serotonin Transporter Binding Assay. The note with it: HEK-hSERT cell membranes, 1 nM [3H]-citalopram, Cheng and Prusoff. Summed up:
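Displacement of 1 nM [^3H]-citalopram (1 hr, 25° C, Tris pH 7.4 with NaCl/KCl) from membranes of HEK-293 cells stably expressing human SERT, with bound ligand read after filtration. 10 μM fluoxetine defined non-specific binding. Ki values were derived via Cheng–Prusoff from IC50 displacement-curve midpoints.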

T1 sequence (P14416 whole entry): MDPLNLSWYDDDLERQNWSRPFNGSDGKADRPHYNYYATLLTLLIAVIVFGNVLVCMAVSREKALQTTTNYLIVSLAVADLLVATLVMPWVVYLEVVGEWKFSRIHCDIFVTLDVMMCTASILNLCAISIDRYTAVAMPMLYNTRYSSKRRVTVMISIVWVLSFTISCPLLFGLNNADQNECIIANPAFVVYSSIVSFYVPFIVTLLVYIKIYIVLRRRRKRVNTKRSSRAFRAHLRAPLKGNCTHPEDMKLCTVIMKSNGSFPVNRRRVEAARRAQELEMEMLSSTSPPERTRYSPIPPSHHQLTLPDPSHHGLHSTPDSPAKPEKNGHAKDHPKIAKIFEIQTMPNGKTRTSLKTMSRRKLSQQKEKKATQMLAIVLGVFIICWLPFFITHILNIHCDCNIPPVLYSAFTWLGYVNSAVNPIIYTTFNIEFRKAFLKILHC

Consider `CN(C)CC1CC1Cc1c[nH]c2ccc(F)cc12` (racemic) [Example 147, [2-(5-Fluoro-1H-indol-3-ylmethyl)-cyclopropylmethyl]-dimethylamine], for which the melting point was 239 to 241 °C. Moreover, the inhibition constant (Ki) in data set [1] was in the range of 100 to 1000 nM. Besides, the inhibitory constant (Ki) in data set [2] (read-out: SERT Ki) lay within 10 to 100 nM.
`CN(C)CC1CC1c1c[nH]c2ccc(C#N)cc12` (single isomer, unassigned) [Example 1, Trans-2-[5-Cyanoindol-3-yl]-1-(N,N-dimethylaminomethyl)cyclopropane] returned a melting point of 120 to 121 °C. Besides, the Ki in data set [1] was over 1000 nM. In addition, the Ki in data set [2] (SERT Ki (nM)) is under 1 nM.
`CN(C)C[C@H]1C[C@@H]1c1c[nH]c2ccc(F)cc12` [Example 4, (1S,2S)-trans-1-(N,N-dimethylaminomethyl)-2-[5-fluoroindol-3-yl]-cyclopropane]: the melting point was 88 to 90 °C. Besides, the Ki in data set [1] is over 1000 nM. In addition, in data set [2] (SERT Ki (nM)), the Ki is under 1 nM.
Turning to `CN(C)CC1CC1c1c[nH]c2ccc(F)cc12` (single isomer, unassigned) [Example 2, Trans-1-(N,N-dimethylaminomethyl)-2-[5-fluoroindol-3-yl]cyclopropane], the melting point was 199 to 200 °C (dec.). Further, in data set [1], the Ki fell in the range of 100 to 1000 nM. Moreover, the Ki in data set [2] (read-out: SERT Ki) lay within 1 to 10 nM.
For the molecule `CCN(CCNC(=O)OC)C[C@@H]1C[C@H]1c1c[nH]c2ccc(F)cc12` (relative stereo) [Example 108, trans-1-[N,N-Ethyl-2-amino(methylcarbamoyl)ethylaminomethyl]-2-[5-fluoroindol-3-yl]-cyclopropane], the Ki in data set [1] was in the range of 100 to 1000 nM; in data set [2] (read-out: SERT Ki), 10 to 100 nM.
Turning to `CN(Cc1ccccc1)CC1CC1c1c[nH]c2ccc(F)cc12` (stereo not drawn) [Example 131], the values for the Ki in data set [1] and in data set [2] (read-out: SERT Ki) were 100 to 1000 nM and 1 to 10 nM, respectively.
In the case of `CCN(CC)C[C@@H]1C[C@H]1c1c[nH]c2ccc(C#N)cc12` (relative stereo) [Example 48], the inhibition constant (Ki) in data set [1] lay in the range of 100 to 1000 nM; in data set [2] (read-out: SERT Ki) it was 1 to 10 nM.

A word on the melting point: it is the temperature of the solid-liquid transition. By Ki is commonly meant the equilibrium dissociation constant of an inhibitor or competing ligand from its target.
